Test results published in ChEMBL document CHEMBL5465560, “Selectivity Literature for EUbOPEN Chemogenomic Library” (2024).
Values belong to the molecule of their own block, whether it stands above or below them.

Assays:
[1] = molecular target: T1, Tyrosine-protein kinase receptor TYRO3 (Homo sapiens) (UniProt Q06418); test: Selectivity interaction (KinomeScan (DiscoverX)) EUB0000607a TYRO3; conditions: at 10 µM
T1 sequence (whole entry): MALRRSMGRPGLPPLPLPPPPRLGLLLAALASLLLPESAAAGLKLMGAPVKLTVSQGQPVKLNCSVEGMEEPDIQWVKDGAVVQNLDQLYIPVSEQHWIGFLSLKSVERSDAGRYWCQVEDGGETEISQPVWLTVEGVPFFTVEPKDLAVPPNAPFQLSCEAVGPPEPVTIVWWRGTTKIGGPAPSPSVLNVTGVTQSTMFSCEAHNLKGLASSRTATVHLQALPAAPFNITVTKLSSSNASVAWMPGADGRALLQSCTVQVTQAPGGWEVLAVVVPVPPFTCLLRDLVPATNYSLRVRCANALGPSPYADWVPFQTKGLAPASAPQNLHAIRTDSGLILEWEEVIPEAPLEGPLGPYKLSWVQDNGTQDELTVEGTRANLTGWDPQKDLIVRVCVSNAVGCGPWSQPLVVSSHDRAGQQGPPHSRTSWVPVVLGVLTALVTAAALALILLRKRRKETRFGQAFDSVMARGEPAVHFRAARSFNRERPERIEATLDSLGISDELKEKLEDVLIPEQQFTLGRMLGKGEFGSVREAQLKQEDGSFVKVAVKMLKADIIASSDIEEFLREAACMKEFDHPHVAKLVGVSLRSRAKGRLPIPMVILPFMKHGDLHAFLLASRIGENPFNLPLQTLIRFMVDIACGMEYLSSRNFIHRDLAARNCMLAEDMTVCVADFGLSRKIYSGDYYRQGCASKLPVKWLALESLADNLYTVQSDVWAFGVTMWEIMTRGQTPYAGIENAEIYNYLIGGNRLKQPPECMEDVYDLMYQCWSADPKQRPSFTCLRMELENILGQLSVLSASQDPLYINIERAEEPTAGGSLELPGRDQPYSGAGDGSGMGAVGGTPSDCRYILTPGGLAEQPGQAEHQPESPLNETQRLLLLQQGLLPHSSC

[2] = molecular target: Serine/threonine-protein kinase 38-like (Homo sapiens) (UniProt Q9Y2H1); conditions: at 10 µM
Serine/threonine-protein kinase 38-like (Homo sapiens), sequence (Q9Y2H1 2-464 limits assumed): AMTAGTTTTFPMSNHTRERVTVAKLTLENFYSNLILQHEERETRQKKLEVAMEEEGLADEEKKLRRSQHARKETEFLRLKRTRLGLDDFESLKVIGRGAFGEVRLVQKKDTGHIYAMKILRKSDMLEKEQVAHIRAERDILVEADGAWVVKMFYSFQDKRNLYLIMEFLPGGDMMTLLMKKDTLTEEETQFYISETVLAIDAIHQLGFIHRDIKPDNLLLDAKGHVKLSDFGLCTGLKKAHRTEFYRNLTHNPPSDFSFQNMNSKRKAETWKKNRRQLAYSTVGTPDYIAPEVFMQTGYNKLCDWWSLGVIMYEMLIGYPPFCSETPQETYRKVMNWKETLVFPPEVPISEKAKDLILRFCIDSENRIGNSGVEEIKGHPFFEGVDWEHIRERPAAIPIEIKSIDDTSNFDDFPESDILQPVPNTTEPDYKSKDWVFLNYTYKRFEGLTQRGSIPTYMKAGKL

[3] = molecular target: Serine/threonine-protein kinase MARK2 (Homo sapiens) (UniProt Q7KZI7); test: Selectivity interaction (ActivX KiNativ screen (kinase selectivity in THP-1 cell lysates)) EUB0000639a MARK2; format: subcellular; conditions: lysate, at 0.2 µM
Serine/threonine-protein kinase MARK2 (Homo sapiens), sequence (Q7KZI7 whole entry): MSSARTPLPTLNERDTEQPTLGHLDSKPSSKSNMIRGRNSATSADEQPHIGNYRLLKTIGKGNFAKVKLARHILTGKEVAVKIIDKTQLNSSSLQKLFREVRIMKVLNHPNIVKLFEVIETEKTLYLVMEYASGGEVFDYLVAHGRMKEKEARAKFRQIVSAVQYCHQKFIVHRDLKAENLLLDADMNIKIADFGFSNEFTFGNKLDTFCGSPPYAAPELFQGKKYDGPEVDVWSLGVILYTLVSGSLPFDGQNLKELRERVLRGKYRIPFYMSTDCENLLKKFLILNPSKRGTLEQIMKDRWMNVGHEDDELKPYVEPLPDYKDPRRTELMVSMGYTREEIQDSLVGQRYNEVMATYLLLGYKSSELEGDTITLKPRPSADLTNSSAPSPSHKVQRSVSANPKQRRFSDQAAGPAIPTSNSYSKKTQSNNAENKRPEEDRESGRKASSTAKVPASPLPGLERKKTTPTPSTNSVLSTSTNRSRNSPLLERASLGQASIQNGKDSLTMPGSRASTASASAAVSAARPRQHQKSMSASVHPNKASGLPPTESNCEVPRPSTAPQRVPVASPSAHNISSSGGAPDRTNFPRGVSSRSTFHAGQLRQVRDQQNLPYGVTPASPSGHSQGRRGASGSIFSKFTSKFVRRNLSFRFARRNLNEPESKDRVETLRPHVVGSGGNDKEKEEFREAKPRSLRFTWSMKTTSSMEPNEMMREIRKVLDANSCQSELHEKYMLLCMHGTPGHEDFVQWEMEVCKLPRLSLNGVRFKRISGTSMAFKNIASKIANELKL

[4] = molecular target: Serine/threonine-protein kinase PAK 6 (Homo sapiens) (UniProt Q9NQU5); test: Selectivity interaction (KinomeScan (DiscoverX)) EUB0000695a PAK6; conditions: at 100 nM
Serine/threonine-protein kinase PAK 6 (Homo sapiens), sequence (Q9NQU5 whole entry, looked up, canonical isoform): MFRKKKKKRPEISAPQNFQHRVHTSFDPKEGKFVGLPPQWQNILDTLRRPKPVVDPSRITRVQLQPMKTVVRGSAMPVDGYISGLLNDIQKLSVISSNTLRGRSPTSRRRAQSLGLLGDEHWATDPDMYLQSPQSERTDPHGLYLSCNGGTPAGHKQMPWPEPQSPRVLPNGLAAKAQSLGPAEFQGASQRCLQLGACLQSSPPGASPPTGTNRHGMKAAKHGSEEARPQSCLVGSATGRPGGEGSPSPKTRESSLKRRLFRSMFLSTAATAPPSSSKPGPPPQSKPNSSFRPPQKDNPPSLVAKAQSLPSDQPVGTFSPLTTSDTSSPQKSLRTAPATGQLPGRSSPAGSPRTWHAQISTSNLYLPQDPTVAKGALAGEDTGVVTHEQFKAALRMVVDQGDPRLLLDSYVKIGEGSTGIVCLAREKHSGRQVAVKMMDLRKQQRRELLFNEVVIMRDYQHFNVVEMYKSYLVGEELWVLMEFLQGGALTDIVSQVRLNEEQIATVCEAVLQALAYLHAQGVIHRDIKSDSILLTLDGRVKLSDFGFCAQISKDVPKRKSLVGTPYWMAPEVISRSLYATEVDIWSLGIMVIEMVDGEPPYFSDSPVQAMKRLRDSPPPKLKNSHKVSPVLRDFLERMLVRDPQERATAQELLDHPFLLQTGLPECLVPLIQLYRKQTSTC

[5] = molecular target: Casein kinase I isoform delta (Homo sapiens, UniProt P48730); test: Selectivity interaction (KinomeScan (DiscoverX)) EUB0000595a CSNK1D; conditions: at 10 µM
Casein kinase I isoform delta, sequence (P48730 whole entry, looked up, canonical isoform): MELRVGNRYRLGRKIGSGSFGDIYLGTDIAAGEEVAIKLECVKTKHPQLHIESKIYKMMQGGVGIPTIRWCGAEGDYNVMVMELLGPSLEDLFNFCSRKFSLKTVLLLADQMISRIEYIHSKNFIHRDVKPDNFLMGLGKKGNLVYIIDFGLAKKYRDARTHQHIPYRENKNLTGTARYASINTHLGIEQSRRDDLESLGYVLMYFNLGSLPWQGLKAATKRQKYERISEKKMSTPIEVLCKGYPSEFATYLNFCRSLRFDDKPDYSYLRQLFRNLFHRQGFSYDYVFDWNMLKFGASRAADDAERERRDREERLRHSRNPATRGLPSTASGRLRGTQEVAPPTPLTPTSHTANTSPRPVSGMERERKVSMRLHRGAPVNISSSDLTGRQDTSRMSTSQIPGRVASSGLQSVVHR

[6] = molecular target: T2, Dual specificity mitogen-activated protein kinase kinase 5 (Homo sapiens) (UniProt Q13163); test: Selectivity interaction (Ambit KINOMEscan and KiNATiv profiling in Jurkat cells) EUB0000090b MAP2K5; format: cell-based; conditions: at 1 µM
T2 sequence (whole entry): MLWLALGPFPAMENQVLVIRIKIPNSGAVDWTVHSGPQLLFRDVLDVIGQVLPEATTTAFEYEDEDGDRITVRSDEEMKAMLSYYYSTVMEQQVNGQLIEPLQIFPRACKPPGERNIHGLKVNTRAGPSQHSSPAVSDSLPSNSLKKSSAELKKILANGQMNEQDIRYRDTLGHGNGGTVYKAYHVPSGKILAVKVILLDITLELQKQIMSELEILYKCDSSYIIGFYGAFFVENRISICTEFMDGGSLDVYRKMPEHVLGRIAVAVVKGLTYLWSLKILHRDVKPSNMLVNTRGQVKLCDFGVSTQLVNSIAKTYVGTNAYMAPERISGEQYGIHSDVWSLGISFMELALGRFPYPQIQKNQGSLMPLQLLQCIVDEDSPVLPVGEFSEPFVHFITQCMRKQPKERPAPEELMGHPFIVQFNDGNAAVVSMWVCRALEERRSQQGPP

[7] = molecular target: Receptor tyrosine-protein kinase erbB-4 (Homo sapiens, UniProt Q15303); test: Selectivity interaction (Ambit KINOMEscan and KiNATiv profiling in Jurkat cells) EUB0000090b ERBB4; format: cell-based; conditions: at 1 µM
Receptor tyrosine-protein kinase erbB-4, sequence (Q15303 whole entry): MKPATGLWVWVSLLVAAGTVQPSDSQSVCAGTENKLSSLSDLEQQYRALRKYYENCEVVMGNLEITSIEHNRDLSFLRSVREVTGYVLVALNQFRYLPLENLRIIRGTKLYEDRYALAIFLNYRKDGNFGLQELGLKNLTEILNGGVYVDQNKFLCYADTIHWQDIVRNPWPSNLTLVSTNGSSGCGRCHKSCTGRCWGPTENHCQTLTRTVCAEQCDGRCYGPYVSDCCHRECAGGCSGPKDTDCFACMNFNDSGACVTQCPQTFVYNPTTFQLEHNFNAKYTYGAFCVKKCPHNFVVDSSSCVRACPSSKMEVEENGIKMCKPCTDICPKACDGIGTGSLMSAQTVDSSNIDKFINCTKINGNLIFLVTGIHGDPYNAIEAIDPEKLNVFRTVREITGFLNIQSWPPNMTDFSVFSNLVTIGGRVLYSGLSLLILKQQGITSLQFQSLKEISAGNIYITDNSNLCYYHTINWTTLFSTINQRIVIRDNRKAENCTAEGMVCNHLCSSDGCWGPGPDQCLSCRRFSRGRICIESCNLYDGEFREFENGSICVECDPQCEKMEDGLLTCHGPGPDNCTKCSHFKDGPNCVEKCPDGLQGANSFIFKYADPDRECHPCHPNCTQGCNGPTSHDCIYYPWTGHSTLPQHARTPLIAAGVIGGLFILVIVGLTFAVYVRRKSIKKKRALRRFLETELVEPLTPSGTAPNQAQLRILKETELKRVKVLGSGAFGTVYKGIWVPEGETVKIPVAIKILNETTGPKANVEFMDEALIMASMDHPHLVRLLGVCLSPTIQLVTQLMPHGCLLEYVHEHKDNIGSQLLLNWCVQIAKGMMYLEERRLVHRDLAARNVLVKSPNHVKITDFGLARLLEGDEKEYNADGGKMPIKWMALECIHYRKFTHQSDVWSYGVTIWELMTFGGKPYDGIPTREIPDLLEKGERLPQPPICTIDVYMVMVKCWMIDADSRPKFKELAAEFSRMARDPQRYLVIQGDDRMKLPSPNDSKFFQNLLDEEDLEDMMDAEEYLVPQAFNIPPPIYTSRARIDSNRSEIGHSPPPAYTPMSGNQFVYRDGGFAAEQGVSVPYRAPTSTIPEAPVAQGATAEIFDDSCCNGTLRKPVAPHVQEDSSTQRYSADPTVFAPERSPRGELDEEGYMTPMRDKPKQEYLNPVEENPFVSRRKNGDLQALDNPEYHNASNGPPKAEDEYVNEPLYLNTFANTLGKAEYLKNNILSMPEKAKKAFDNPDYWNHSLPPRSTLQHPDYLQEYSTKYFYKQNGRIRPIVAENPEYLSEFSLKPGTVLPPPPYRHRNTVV

[8] = molecular target: RAC-alpha serine/threonine-protein kinase (Homo sapiens, UniProt P31749); conditions: at 10 µM
RAC-alpha serine/threonine-protein kinase, sequence (P31749 whole entry, the tested form may be a part): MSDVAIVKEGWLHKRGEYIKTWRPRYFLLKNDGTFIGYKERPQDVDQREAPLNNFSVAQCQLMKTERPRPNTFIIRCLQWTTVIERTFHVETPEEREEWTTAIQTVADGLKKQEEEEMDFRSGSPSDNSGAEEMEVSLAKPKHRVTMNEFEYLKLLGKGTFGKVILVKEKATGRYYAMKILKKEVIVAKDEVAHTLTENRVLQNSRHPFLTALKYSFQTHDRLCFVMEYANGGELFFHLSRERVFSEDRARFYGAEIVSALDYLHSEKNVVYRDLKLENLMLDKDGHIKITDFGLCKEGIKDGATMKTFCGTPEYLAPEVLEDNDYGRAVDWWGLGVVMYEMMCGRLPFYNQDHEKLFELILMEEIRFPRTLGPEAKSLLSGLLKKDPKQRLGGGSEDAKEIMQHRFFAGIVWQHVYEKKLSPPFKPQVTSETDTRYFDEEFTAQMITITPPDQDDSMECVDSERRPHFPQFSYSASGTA

[9] = molecular target: T3, Ankyrin repeat and protein kinase domain-containing protein 1 (Homo sapiens) (UniProt Q8NFD2); conditions: at 10 µM
T3 sequence (whole entry): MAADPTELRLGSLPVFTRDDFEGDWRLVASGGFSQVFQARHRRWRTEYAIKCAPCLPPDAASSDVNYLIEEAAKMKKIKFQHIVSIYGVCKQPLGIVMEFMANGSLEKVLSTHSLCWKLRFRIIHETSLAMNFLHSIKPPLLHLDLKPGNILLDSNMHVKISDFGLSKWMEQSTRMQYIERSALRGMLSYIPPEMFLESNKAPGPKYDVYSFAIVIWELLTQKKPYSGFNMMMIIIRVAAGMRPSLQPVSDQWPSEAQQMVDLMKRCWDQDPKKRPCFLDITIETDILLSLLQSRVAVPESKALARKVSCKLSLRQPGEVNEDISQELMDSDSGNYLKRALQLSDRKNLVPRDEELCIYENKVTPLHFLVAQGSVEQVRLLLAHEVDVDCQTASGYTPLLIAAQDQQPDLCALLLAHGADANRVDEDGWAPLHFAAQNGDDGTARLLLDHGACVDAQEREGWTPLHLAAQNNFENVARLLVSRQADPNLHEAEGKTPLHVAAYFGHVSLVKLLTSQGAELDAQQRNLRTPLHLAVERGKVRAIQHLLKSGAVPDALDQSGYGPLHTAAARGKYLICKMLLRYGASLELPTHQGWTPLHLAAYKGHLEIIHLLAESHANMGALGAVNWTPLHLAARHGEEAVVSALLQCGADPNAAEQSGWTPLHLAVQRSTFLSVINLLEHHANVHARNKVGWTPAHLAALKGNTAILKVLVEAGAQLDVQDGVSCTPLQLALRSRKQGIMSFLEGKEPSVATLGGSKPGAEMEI

SMILES: CNC(=O)Nc1ccc(-c2nc(N3CC4CCC(C3)O4)c3cnn(C4CCC5(CC4)OCCO5)c3n2)cc1
% of control [1]: 100%

% of control [2]: 100%
SMILES: CCN(CC)CCCCNc1ncc2cc(-c3cc(OC)cc(OC)c3)c(NC(=O)NC(C)(C)C)nc2n1

% of inhibition [3]: 4.2%
SMILES: CC[C@@H]1[C@H](F)C(=O)N[C@@H]1COc1nccc2cc(C(N)=O)c(OC)cc12 [ZIMLOVISERTIB]

SMILES: Cc1cc(F)c(C(=O)Nc2cccc(-c3nncn3C(C)C)n2)cc1-n1cnc(C2CC2)c1
% of control [4]: 90%

SMILES: COCC(=O)NC/C=C/c1ccc2ncnc(Nc3ccc(Oc4ccc(C)nc4)c(C)c3)c2c1 [CP-724714]
% of control [5]: 90%

SMILES: CN(C)C/C=C/C(=O)Nc1ccc(C(=O)N2CCCC(Nc3ncc(Cl)c(-c4c[nH]c5ccccc45)n3)C2)cc1 (centres undefined)
% of control [6]: 97% | % of control [7]: 96%

SMILES: Cc1cc([C@@H](C)Nc2ccccc2C(=O)O)c2nc(N3CCOCC3)cc(=O)n2c1 [AZD-6482]
% of control [8]: 100% | % of control [9]: 100%
